Reference: patent publication US20240208997A1, “CYCLIC BENZIMIDAZOLE DERIVATIVES AS CGAS INHIBITORS” (Boehringer Ingelheim International GmbH, priority 2022, published 2024)

Legend:
[1] = tested on: IFN induction in cGAMP-stimulated THP1 cells; experiment: cGAMP stimulated counter cell assay in THP1-Dual cells (THP1(cGAMP) IC50); format: cell-based, human; settings: Table 1; for IC50: Homo sapiens, THP-1, counter assay, 10 μM cGAMP stimulation, read-out: THP(cGAMP) IC50; for Ratio THP(cGAMP) IC50/THP(vir) IC50: selectivity for cGAS-inhibition
Summary of the method: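 THP1-Dual cells (5000/well, RPMI/10% FCS) stimulated with cGAMP to activate the pathway directly downstream of cGAS; compounds at 8 concentrations, top 10 μM, ~1:5 steps, 1% DMSO. After 18 h at 37 °C, Lucia luciferase luminescence read; IC50 from 4-parameter logistic fit normalised to low and high controls.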

[2] = target: cGAS (Homo sapiens, UniProt Q8N884); experiment: Human cGAS enzyme assay (hcGAS IC50, in vitro), cGAMP formation by RapidFire MS; format: biochemical; design: HumancGAS (amino acid 1-522) with an N-terminal 6×-His-tag and SUMO-tag; 6xHis (N); SUMO (N); made in house; host or cells: E. coli BL21(DE3) pLysS; settings: Table 1; 45 bp dsDNA-activated enzyme
Description: 6.1 Method: Human cGAS Enzyme Assay (hcGAS IC50 (In Vitro))
Human cGAS enzyme was incubated in the presence of a 45 base pair double stranded DNA to activate the enzyme and GTP and ATP as substrates. Compound activity was determined by measuring the effect of compounds on the formation of the product of the enzyme reaction, cGAMP, which is measured by a mass spectrometry method.
HumancGAS (amino acid 1-522) with an N-terminal 6×-His-tag and SUMO-tag was expressed in E. coli BL21(DE3) pLysS (Novagen) cells for 16 h at 18° C. Cells were lysed in buffer containing 25 mM Tris (pH 8), 300 mM NaCl, 10 mM imidazole, 10% glycerol, protease inhibitor cocktail (cOmplete™, EDTA-free, Roche) and DNase (5 μg/mL). […] Purified protein was concentrated to 1.7 mg/mL and stored at −80° C.
Compounds were delivered in 10 mM DMSO solution, serially diluted and transferred to the 384 well assay plate (Greiner #781201) using an Echo acoustic dispenser. Typically, 8 concentrations were used with the highest concentration at 10 μM in the final assay volume followed by ^˜1:5 dilution steps. DMSO concentration was set to 1% in the final assay volume. The 384 well assay plate contained 22 test compounds (column 1-22), and DMSO in column 23 and 24.
After the compound transfer, 15 μL of the enzyme-DNA-working solution (12 nM cGAS, 0.32 μM 45base pair DNA in assay buffer, 10 mM Tris pH 7.5/10 mM KCl/5 mM MgCl2/1 mM DTT) were added to each well from column 1-23 via a MultiDrop Combi dispenser. In column 24, 15 μl of assay buffer without enzyme/DNA were added as a low control.
The plates were then pre-incubated for 60 min at room temperature.
Following that, 10 μL of GTP (ThermoFisher #R0461)-ATP (Promega #V915B) mix in assay buffer were added to the assay plate (columns 1-24, 30 μM final concentration each) using a Multidrop Combi.
The plates were incubated again for 90 min at room temperature.
Following the incubation, the reaction was stopped by 80 μL of 0,1% formic acid in assay buffer containing 5 nM cyclic-di-GMP (Sigma #SML1228) used as internal standard for the mass spectrometry. The total volume/well was 105 μL.
The plates were centrifuged at 4000 rpm, 4° C., for 5 min.
The RapidFire autosampler was coupled to a binary pump (Agilent 1290) and a Triple Quad 6500 (ABSciex, Toronto, Canada). […] Aspiration time: 250 ms; Load time: 3000 ms; Elute time: 3000 ms; Wash volume: 500 μL.
The MS was operated in positive ion mode with HESI ion source, with a source temperature of 550 C, curtain gas=35, gas 1=65, and gas 2=80. Unit mass resolution in SRM mode. The following transitions and MS parameters (DP: declustering potential and CE: collision energy) for cGAMP and DicGMP were determined:
Internal standard: cyclic-di-GMP at 690.1/540, DP=130, CE=30.
The formation of cGAMP was monitored and evaluated as ratio to cyclic-di-GMP.
Data Evaluation and Calculation:
For data evaluation and calculation, the measurement of the low control was set as 0% control and the measurement of the high control was set as 100% control. The IC50 values were calculated using the standard 4 parameter logistic regression formula. Calculation: [y=(a−d)/(1+(x/c)^b)+d], a=low value, d=high value; x=conc M; c=1C50 M; b=slope

Chain of cGAS (Q8N884 whole entry): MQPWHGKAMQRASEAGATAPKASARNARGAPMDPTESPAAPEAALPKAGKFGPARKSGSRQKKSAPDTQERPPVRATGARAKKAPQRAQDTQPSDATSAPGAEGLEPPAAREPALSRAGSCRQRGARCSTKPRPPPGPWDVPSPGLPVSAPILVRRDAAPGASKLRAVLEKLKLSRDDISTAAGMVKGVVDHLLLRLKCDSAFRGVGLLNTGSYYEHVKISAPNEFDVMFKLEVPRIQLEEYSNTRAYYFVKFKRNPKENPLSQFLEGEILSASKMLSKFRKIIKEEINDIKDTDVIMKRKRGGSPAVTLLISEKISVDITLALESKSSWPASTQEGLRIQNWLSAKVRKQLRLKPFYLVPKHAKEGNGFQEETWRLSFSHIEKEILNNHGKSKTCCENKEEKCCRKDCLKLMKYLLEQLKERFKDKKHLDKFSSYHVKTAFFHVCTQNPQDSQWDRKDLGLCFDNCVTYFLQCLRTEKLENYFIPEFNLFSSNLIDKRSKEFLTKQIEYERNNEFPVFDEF

SMILES | IC50 [1] [µM] | Ratio THP(cGAMP) IC50/THP(vir) IC50 [1] | IC50 [2] [nM]
C[C@H]1CN2CC[C@@H]1n1c(nc3cc(Cl)ccc31)O[C@H]1C[C@@H](C(=O)O)N(C1)c1nc(nc3c1oc1ccccc13)C(F)(F)OCCCCC2=O [Example 6.01] | > 10 | >2225 | 3.5
C[C@H]1CN2CC[C@@H]1n1c(nc3ccccc31)O[C@H]1C[C@@H](C(=O)O)N(C1)c1nc(nc3c1oc1ccccc13)CCCC(C)(C)CCC2=O [Example 1.23] | 9.5 | 51 | 41
C[C@H]1CN2CC[C@@H]1n1c(nc3ccccc31)O[C@H]1C[C@@H](C(=O)O)N(C1)c1nc(nc3c1oc1ccccc13)C(F)(F)COCCCCC2=O [Example 3.01] | 14 | 32066 | 2.1
C[C@H]1CN2CC[C@@H]1n1c(nc3cc(Cl)ccc31)O[C@H]1C[C@@H](C(=O)O)N(C1)c1nc(nc3c1oc1ccccc13)C(F)(F)CCCOCC2=O [Example 1.21] | > 10 | >5238 | 3.3
C[C@H]1CN2CC[C@@H]1n1c(nc3ccccc31)O[C@H]1C[C@@H](C(=O)O)N(C1)c1nc(nc3c1oc1cc(Cl)ccc13)C(F)(F)CCCOCC2=O [Example 1.22] | > 10 | >6579 | 2.7
CC1CCc2nc(c3oc4ccccc4c3n2)N2C[C@H](C[C@H]2C(=O)O)Oc2nc3cc(Cl)ccc3n2[C@H]2CCN(C[C@@H]2C)C(=O)CCO1 (stereo partly drawn) [Example 1.20] | > 10 | >773 | 4.9
C[C@@H]1CN2CC[C@H]1n1c(nc3cc(Cl)ccc31)O[C@H]1C[C@@H](C(=O)O)N(C1)c1nc(nc3c1oc1ccccc13)CCOCCCC2=O [Example 1.01] | > 10 | >253 | 14
C[C@H]1CN2CC[C@@H]1n1c(nc3cc(Cl)ccc31)O[C@H]1C[C@@H](C(=O)O)N(C1)c1nc(nc3c1oc1cc(Cl)ccc13)CCOCCCC2=O [Example 1.08] | 9.5 | 3928 | 4.5
C[C@H]1CN2CC[C@@H]1n1c(nc3cc(Cl)ccc31)O[C@H]1C[C@@H](C(=O)O)N(C1)c1nc(nc3c1oc1ccccc13)CCOCCCC2=O [Example 1.02] | > 10 | >3557 | 2.8
C[C@H]1CN2CC[C@@H]1n1c(nc3ccccc31)O[C@H]1C[C@@H](C(=O)O)N(C1)c1nc(nc3c1oc1ccccc13)CCOCCOC2=O (mixture of isomers) [Example 12.01] | > 10 | >42 | 8.9
O=C(O)[C@@H]1C[C@H]2CN1c1nc(nc3c1oc1ccccc13)OCCCCOC(=O)N1CCC(CC1)n1c(nc3ccccc31)O2 [Example 11.01] | > 1 | >56 | 10
